Data as given in patent publication US20230312639A1, “GPER PROTEOLYTIC TARGETING CHIMERAS” (University of Iowa Research Foundation, priority 2020, published 2023).
Residues, ends and D or L forms follow the SMILES beside them. *: point of attachment. Cbz = O=C(OCc1ccccc1)*

Key:
[1] = molecular target: HiBiT-GPER (Homo sapiens, UniProt Q99527); assay: Nano-BiT binary luminescence complementation, transfected HEK-293 cells, total receptor; assay type: cell-based; settings: for effect on UI-EP001 / UI-EP002 degradation of HiBiT-GPER: 100 µM UI-EP001 or UI-EP002, 1 hour, MG132 10 µM, chloroquine 100 µM, E2 or aldosterone 100 nM-100 µM
Chain of HiBiT-GPER (Q99527 whole entry): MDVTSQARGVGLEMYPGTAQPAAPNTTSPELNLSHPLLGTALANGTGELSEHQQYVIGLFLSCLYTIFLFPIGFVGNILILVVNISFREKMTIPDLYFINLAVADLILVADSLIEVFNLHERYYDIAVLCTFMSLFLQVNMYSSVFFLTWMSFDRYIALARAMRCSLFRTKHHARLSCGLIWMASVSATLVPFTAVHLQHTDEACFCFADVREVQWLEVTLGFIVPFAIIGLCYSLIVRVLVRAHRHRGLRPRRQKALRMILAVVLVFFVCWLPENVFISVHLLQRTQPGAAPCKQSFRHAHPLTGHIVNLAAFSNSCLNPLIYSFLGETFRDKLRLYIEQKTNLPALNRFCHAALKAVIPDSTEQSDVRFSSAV
Description: FIG. 26. […] HEK-293 cells (ERα^-, GPER^-) were transiently transfected with 50 ng HiBiT-GPER or HiBiT-ER plus pcDNA3.1(+) zeo carrier plasmid. […] (C) Histogram depicting total HiBiT-GPER and HiBiT-ER following a 1-hour treatment at […] drug or control. […] Results shown represent the mean ± S.E. of three independent experiments.
(§1) FIG. 28. […] Total receptor was then measured by binary luminescence complementation in detergent-permeabilized cells. […] Total receptor was then quantified by binary luminescence complementation. Representative luminescence data and mean values and SDs derived from three independent experiments are shown.
(§2) Transient transfections and binary Nano-Bit ™ luminescence assays. Total HiBiT-tagged GPER or ER estrogen receptors were detected in detergent-permeabilized cells by binary luminescence complementation with recombinant LgBit and substrate using the Nano-Glo HiBiT Extracellular Detection system kit (Promega Corporation, Madison, Wl). In brief, HEK293 cells (0.75 × 10^6) were seeded in 35 mm tissue culture dishes and 24 hours later were transiently transfected with 50 ng of HiBiT-GPER or HiBiT-ERa and 950 ng of pcDNA3.1(+) zeo carrier plasmid using Lipofectamine 2000 (Invitrogen, Carlsbad, CA). The next day transfected cells were harvested by trypsinization and seeded at a density of 10^4 cells/well in 96-well poly-L-lysine-coated Greiner white-bottomed microplates. On the following day, cell culture media was aspirated and replaced with 100 µL of serum-free PRF-DF12 containing E2-PROTAC, partial-PROTAC, or vehicle at various concentrations and for indicated time intervals at 37° C. […] Following treatment, total HiBiT-tagged receptor was measured in cells which were permeabilized in 0.05% Triton X-100 using HiBiT complementation reagent consisting of LgBiT protein and Nano-Gio® HiBiT substrate. Luminescence was measured using the Infinite 200 PRO multimode microplate reader from Tecan (Raleigh, NC) and reported as Relative Luminescent Units (RLU). All samples were measured in triplicate and expressed as the mean value plus or minus standard deviation.

[2] = molecular target: T1, HiBiT-ERα (Homo sapiens, UniProt P03372); assay: as above; assay type: cell-based; settings: for effect on UI-EP001 / UI-EP002 degradation of HiBiT-ERα: 100 µM UI-EP001 or UI-EP002, 1 hour, MG132 10 µM, chloroquine 100 µM, E2 or aldosterone 100 nM-100 µM
T1 sequence (P03372 1-595): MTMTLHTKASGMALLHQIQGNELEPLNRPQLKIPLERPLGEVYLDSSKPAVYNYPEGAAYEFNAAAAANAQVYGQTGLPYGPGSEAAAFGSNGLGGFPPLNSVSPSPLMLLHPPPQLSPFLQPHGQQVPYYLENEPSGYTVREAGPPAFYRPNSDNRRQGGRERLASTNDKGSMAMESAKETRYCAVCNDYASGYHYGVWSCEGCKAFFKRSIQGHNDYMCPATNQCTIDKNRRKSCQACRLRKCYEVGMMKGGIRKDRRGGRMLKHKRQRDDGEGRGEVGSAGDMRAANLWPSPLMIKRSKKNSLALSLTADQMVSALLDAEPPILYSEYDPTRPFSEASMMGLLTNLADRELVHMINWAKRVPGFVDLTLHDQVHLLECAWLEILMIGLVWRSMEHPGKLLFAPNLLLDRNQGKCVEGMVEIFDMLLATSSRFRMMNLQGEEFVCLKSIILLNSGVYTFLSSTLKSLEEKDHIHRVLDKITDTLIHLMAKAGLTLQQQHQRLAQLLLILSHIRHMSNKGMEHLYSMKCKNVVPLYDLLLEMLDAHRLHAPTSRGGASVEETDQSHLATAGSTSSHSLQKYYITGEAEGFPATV
Description: FIG. 26. […] HEK-293 cells (ERα^-, GPER^-) were transiently transfected with 50 ng HiBiT-GPER or HiBiT-ER plus pcDNA3.1(+) zeo carrier plasmid. […] Results shown represent the mean ± S.E. of three independent experiments.
as §1, §2

[3] = test system: HCC1806 cells; assay: Cell cycle analysis, propidium iodide, flow cytometry; assay type: cell-based, human; settings: HCC1806, 10 µM, 24 hours
Excerpt: (§3) FIG. 30. E2-PROTACs promote estrogen receptor-dependent G2/M arrest. E2-PROTAC induced G2/M arrest in human breast cancer cell lines expressing membrane and/or intracellular estrogen receptors. […] Fixed cells were permeabilized and dyed with propidium iodide (PI). Cell cycle data were acquired on a flow cytometer and analyzed using Flow-Jo software. Data are expressed as mean ± SEM (n=3). The percentage of cells in each phase were plotted using Prism 8.0.
(§4) Cell cycle analysis. […] Following treatment, cells were harvested by trypsinization and washed twice in ice-cold PBS. Cells were then fixed in 70% ethanol at 4° C. for 30 minutes. Fixed cells were pelleted by centrifugation at 230 g for 5 minutes and the cell pellet was incubated in Krishan’s solution (3.8 mM sodium citrate (Fisher Scientific), 0.014 mM propidium iodide (AnaSpec, Fermont, Ca), 1% NP-40 (Sigma) and 2.0 mg/mL RNase A (Fisher Scientific)) for 30 minutes at 37° C. Cells were then centrifuged and washed in PBS prior to analysis using a FacScallibur flow cytometer. The data from flow cytometry were subjected to further analysis by CellQuest software version 3.3. DNA histograms generated indicate the fractions of the cell population in the sub-G1, G0-G1, S, or G2/M phase of the cell cycle.
(§5) To investigate the biological effect associated with decreased cell viability, cell cycle analysis was performed on the same four cell lines using propidium iodide staining and measured by flow cytometry 24 hours after treatment of cells with 10 µM E2-PROTAC or partial PROTAC (FIG. 30).

[4] = test system: MCF-7 cells; assay: as above; assay type: cell-based, human; settings: MCF-7, 10 µM, 24 hours
Excerpt: as §3, §4, §5

[5] = test system: SKBR3 cells; assay: as above; assay type: cell-based, human; settings: SKBR3, 10 µM, 24 hours
Excerpt: as §3, §4, §5

[6] = molecular target: T2, ERα (Homo sapiens, UniProt P03372); assay: Immunostaining of endogenous receptors in MCF-7 cells; settings: MCF-7, 1 hour
T2 sequence (P03372 1-595): T1 sequence (P03372 1-595)

[7] = molecular target: ERβ (Homo sapiens, UniProt Q92731); assay: as above; settings: MCF-7, 1 hour
Chain of ERβ (Q92731 whole entry): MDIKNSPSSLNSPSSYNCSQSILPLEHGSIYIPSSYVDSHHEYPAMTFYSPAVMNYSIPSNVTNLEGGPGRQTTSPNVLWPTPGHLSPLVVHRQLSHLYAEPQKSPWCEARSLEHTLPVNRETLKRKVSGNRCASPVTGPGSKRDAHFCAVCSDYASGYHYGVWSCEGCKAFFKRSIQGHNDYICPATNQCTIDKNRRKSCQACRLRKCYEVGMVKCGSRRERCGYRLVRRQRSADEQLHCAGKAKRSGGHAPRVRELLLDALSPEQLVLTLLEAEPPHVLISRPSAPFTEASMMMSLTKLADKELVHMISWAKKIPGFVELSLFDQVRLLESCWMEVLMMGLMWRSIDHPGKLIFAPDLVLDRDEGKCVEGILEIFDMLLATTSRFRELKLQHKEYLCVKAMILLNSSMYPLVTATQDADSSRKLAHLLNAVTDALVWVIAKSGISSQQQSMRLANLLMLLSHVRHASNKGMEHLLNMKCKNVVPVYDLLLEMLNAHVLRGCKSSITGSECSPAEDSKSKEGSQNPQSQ

[8] = molecular target: T3, GPER (Homo sapiens, UniProt Q99527); assay: as above; settings: MCF-7, 1 hour
T3 sequence (Q99527 whole entry): as the sequence (Q99527 whole entry) above

[9] = molecular target: T3, GPER; assay: Competitive binding assay in intact SKBR3 cells with E2-FITC as fluoro-tracer (flow cytometry); parameters: endogenous in cells; host or cells: SKBR3 human breast carcinoma cells (ATCC); settings: concentrations as high as 10 mM
[10] = molecular target: T3, GPER; settings: Filardo et al., 2007; cited from earlier work
[11] = molecular target: T3, GPER; settings: Filardo et al., 2007; cited from earlier work; remark: listed apart in the source
[12] = molecular target: T4, recombinant HA-tagged GPER (Homo sapiens, UniProt Q99527); assay: HA immunoblot of lysates of HEK293 cells stably expressing HA-tagged GPER; assay type: cell-based; settings: various concentrations, 16 hr
T4 construct: expressed in transfected cells
T4 sequence (Q99527 whole entry): as above
Description: FIG. 38. […] HEK293 cells stably expressing recombinant HA-tagged GPER were treated with various concentrations of CIMBA-PROTAC-001 or partial PROTAC for 16 hr and then lysed in detergent. Equivalent amounts of protein lysate were resolved in SDS-polyacrylamide gels and then electrotransferred onto PVDF […] membranes. Membranes were probed with rabbit HA antibodies, top. HA- antibodies were stripped from the membrane at low pH and the membrane was then probed with […] transferrin receptor (TFNR) antibodies as a specificity and loading control.

[13] = test system: ERs (ERa and ERb); assay: Fluorescence polarization competitive binding with E2-FITC in cytosolic fractions from MCF-7 cells; parameters: species or system human
Description: ER binding was measured using cytosolic fractions prepared from MCF-7 cells by fluorescence polarization. MCF-7 (10^6 cells) were detached in EDTA, cell homogenates were prepared using a Dounce homogenizer and subcellular fractions were isolated by differential centrifugation as previously described (Filardo et al, 2002). The protein concentration of each fraction was determined by bichinchoninic acid (BCA) assay (Pierce ™ BCA protein assay kit, Thermo Fisher). For saturation binding assay of the probe, different concentrations of cytosolic fraction were diluted in assay buffer (10 mM Tris-HCl, pH 7.4; 50 mM KCl, 10% glycerol, 0.1 mM dithiothreitol (DTT), 1 ug/mL BGG, 10 nM protease inhibitor cocktail (Roche) to a final volume of 200 uL containing 10 nM Ez-FITC. The mixture was incubated at ambient temperature for 1 hour and interaction of the probe with cytosolic protein was determined by fluorescence polarization (FP). For competitive binding assay, an aliquot of cytosolic fraction and E2-FITC (10 nM final concentration) was mixed and incubated at 4° C. for 1 hour. Then different concentrations of drugs and controls were added to the mixture. The mixture was incubated for an additional hour and then subjected to FP. All samples were measured in triplicate. Negative controls (only cytosolic fraction or only E2-FITC) and positive control (E2-FITC and cytosolic fraction at 100% binding without treatment) were included. Relative binding affinities were expressed as the percentage of FP recorded from treated wells compared to the positive control. FP values in millipolarization units (mP) were measured at ex/em wavelength of 485 nm/530 nm respectively using the Spectra Max plus 384 Microplate Spectrophotometer (Molecular Devices, Sunnyvale, CA) in 96-well, black, flat-bottom microplates (Greiner Bio-One North America, Inc., Monroe, NC). Kd values of the probe were determined by nonlinear regression fitting of the saturation curves, while IC50 values of treatment were determined by nonlinear regression fitting of the competition curves.
In contrast to GPER, ERa and ERb are intracellular receptors that are concentrated in the cytoplasm and in the nucleus. […] A saturation analysis was performed using 10 nM E2-FITC and increasing concentrations of cytosolic protein (FIG. 25D).

[14] = increasing doses, 1 hour, partial PROTAC 100 µM

Cc1ncsc1-c1ccc(CNC(=O)C2CC(O)CN2C(=O)C(NC(=O)COCCOCCOCCOCC(=O)O)C(C)(C)C)cc1 (stereo not drawn) [Partial PROTAC, reference compound]
receptor present after treatment ([1]; 100 µM, 8 hrs, recombinant receptor, GPER or ER not specified): 83% | change of HiBiT-GPER [1, 14]: did not show any significant decrease | change of HiBiT-ERα [2, 14]: did not show any significant decrease | cell cycle distribution [3]: much less significant shift | cell cycle distribution [4]: much less significant shift | cell cycle distribution [5]: much less significant shift | nuclear ERα expression [6]: did not impact | nuclear ERβ expression [7]: did not impact | intracellular GPER expression [8]: did not impact | competition for E2-FITC binding [9]: unable to compete for E2-FITC binding

CCN(CC)CCCC(C)Nc1ccnc2cc(Cl)ccc12 (stereo not drawn) [chloroquine, chloroquine diphosphate]
effect on UI-EP001 / UI-EP002 degradation of HiBiT-GPER [1]: had no such effect

C[C@]12CCC(=O)C=C1CC[C@@H]1[C@@H]2[C@@H](O)C[C@]2(C=O)[C@@H](C(=O)CO)CC[C@@H]12 [aldosterone]
effect on UI-EP001 / UI-EP002 degradation of HiBiT-GPER [1]: not aldosterone was capable of blocking | effect on UI-EP001 / UI-EP002 degradation of HiBiT-ERα [2]: not aldosterone was capable of blocking

C[C@]12CC[C@@H]3c4ccc(O)cc4C[C@@H](CCCCCCCCC[S+]([O-])CCCC(F)(F)C(F)(F)F)[C@H]3[C@@H]1CC[C@@H]2O (stereo partly drawn) [Fulvestrant]
relative binding activity [10]: 5% | concentration at which it functions as a GPER agonist [11]: 500 nM

CC(C)C[C@@H](C=O)NC(=O)[C@H](CC(C)C)NC(=O)[C@H](CC(C)C)NC(=O)OCc1ccccc1 [MG132] (Cbz-Leu-Leu-Leu-aldehyde)
effect on UI-EP001 / UI-EP002 degradation of HiBiT-GPER [1]: reversed | effect on UI-EP001 / UI-EP002 degradation of HiBiT-ERα [2]: reversed

COc1ccc(CNc2ccc(C(C)C)cc2N2CCN(C(=O)COCCOCCOCCOCC(=O)NC(C(=O)N3CC(O)CC3C(=O)NCc3ccc(-c4scnc4C)cc3)C(C)(C)C)CC2)cc1 (stereo not drawn) [CIMBA-PROTAC-001]
degradation of recombinant GPER [12]: degrades recombinant GPER
